Key:
Type in all cases: in vivo
Conditions in all cases: foliar, compared to untreated control leaf disks, read-out: disease control
[1] = tested on: Blumeria graminis f. sp. tritici (Erysiphe graminis f. sp. tritici); experiment: Blumeria graminis f. sp. tritici / wheat / leaf disc preventative (powdery mildew on wheat)
Experimental: Blumeria graminis f. sp. tritici (Erysiphe graminis f. sp. tritici)/Wheat/Leaf Disc Preventative (Powdery Mildew on Wheat)
Wheat leaf segments cv. Kanzler were placed on agar in a multiwell plate (24-well format) and sprayed with the formulated test compound diluted in water. The leaf disks were inoculated by shaking powdery mildew infected plants above the test plates 1 day after application. The inoculated leaf disks were incubated at 20° C. and 60% rh under a light regime of 24 h darkness followed by 12 h light/12 h darkness in a climate chamber and the activity of a compound was assessed as percent disease control compared to untreated when an appropriate level of disease damage appears on untreated check leaf segments (6-8 days after application).
The following compounds gave at 200 ppm give at least 50% disease control in this test when compared to untreated control leaf disks under the same conditions, which show extensive disease development: […]

[2] = tested on: Puccinia recondita f. sp. tritici; experiment: Puccinia recondita f. sp. tritici / wheat / leaf disc curative (brown rust)
Experimental: Puccinia recondita f. sp. tritici/Wheat/Leaf Disc Curative (Brown Rust) Wheat leaf segments cv. Kanzler are placed on agar in multiwell plates (24-well format). The leaf segments are inoculated with a spore suspension of the fungus. Plates were stored in darkness at 19° C. and 75% rh. The formulated test compound diluted in water was applied 1 day after inoculation.

[3] = tested on: Puccinia recondita f. sp. tritici; experiment: Puccinia recondita f. sp. tritici / wheat / leaf disc preventative (brown rust)
Description: Puccinia recondita f. sp. tritici/Wheat/Leaf Disc Preventative (Brown Rust) Wheat leaf segments cv. Kanzler were placed on agar in multiwell plates (24-well format) and sprayed with the formulated test compound diluted in water. The leaf disks were inoculated with a spore suspension of the fungus 1 day after application.

Measured: pest or weed control at 200 ppm

CCN(C)/C=N/c1cc(Br)c(OCc2ccc3cccnc3c2)nc1C [Q.351]
≥ 50%: [1] | [2] | [3]

CCOc1nc(C)c(/N=C/N(C)CC)cc1Br [Q.085]
≥ 50%: [1] | [2] | [3]

CSc1ccccc1COc1ccc(/N=C/N(C)C(C)C)c(C)n1 [Q.339]
≥ 50%: [1] | [2] | [3]

CCN(C)/C=N/c1cc(Br)c(OC2Cc3cc(C#N)c(OC)cc3C2)nc1C (stereo not drawn) [Q.369]
≥ 50%: [1] | [2] | [3]

CCN(C)/C=N/c1cc(Br)c(OCC[Si](CC)(CC)CC)nc1C [Q.274]
≥ 50%: [1] | [2] | [3]

CCCCCCCCCCOc1nc(C)c(/N=C/N(C)CC)cc1C [Q.058]
≥ 50%: [1] | [2] | [3]

CCN(C)/C=N/c1cc(Br)c(OC(C)c2ccccc2C(C)C)nc1C (stereo not drawn) [Q.307]
≥ 50%: [1] | [2] | [3]

C=CCC(CC=C)Oc1nc(C)c(/N=C/N(C)CC)cc1Br [Q.140]
≥ 50%: [1] | [2] | [3]

CCCc1ccccc1COc1nc(C)c(/N=C/N(C)CC)cc1Br [Q.345]
≥ 50%: [1] | [2] | [3]

C=Cc1ccccc1C(C)Oc1nc(C)c(/N=C/N(C)CC)cc1Br (stereo not drawn) [Q.276]
≥ 50%: [1] | [2] | [3]

CC#Cc1cc(/N=C/N(C)CC)c(C)nc1OC(C)c1cc(F)cc(F)c1 (stereo not drawn) [Q.230]
≥ 50%: [1] | [2] | [3]

C#CCOc1nc(C)c(/N=C/N(C)CC)cc1Br [Q.078]
≥ 50%: [1] | [2] | [3]

CCN(C)/C=N/c1cc(Br)c(OC2CCc3ccc(Br)cc3C2)nc1C (stereo not drawn) [Q.127]
≥ 50%: [1] | [2] | [3]

C/C=C/c1cc(/N=C/N(C)CC)c(C)nc1OCc1ccccc1C [Q.385]
≥ 50%: [1] | [2] | [3]

C=CCC(C)Oc1nc(C)c(/N=C/N(C)CC)cc1Br (stereo not drawn) [Q.145]
≥ 50%: [1] | [2] | [3]

Cc1nc(OCCCC(C)C)c(Br)cc1/N=C/N(C)C [Q.006]
≥ 50%: [1] | [2] | [3]

CCN(C)/C=N/c1cc(Br)c(OCC2CC=CC2)nc1C [Q.098]
≥ 50%: [1] | [2] | [3]

CCN(C)/C=N/c1cc(Br)c(OCC2CC(C)=C(C)C2)nc1C [Q.134]
≥ 50%: [1] | [2] | [3]

CCC(Oc1ccc(/N=C/N(C)CC)c(C)n1)c1cc(C)cc(C)c1 (stereo not drawn) [Q.359]
≥ 50%: [1] | [2] | [3]

CCCOc1nc(C)c(/N=C/N(C)CC)cc1Br [Q.388]
≥ 50%: [1] | [2] | [3]

CCN(C)/C=N/c1cc(Br)c(OC(C)c2ccccc2Br)nc1C (stereo not drawn) [Q.303]
≥ 50%: [1] | [2] | [3]

CCN(C)/C=N/c1cc(Br)c(OC2CCCCC2C)nc1C (stereo not drawn) [Q.084]
≥ 50%: [1] | [2] | [3]

CCN(C)/C=N/c1ccc(OC(C)Cc2ccccc2)nc1C (stereo not drawn) [Q.368]
≥ 50%: [1] | [2] | [3]
